Drawing on the supplement of paper PMC10307832, this text covers relative viability for eight cell lines.

Common to all, as to assay: relative viability (nuclei count vs DMSO), 5 days (fraction); higher = more cells survive
Compound in the test “Metformin + Olaparib”: CN(C)C(=N)NC(=N)N [Metformin] + O=C(c1cc(Cc2n[nH]c(=O)c3ccccc23)ccc1F)N1CCN(C(=O)C2CC2)CC1 [Olaparib] (partner 8 µM)
The essentials: (§1)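 Dosing by pin tool came one day after lung cancer cell lines were seeded in 1536-well plates, using either one drug or a fixed anchor-drug dose plus five library-drug doses (not always all listed) in √10 steps. After 5 days, nuclei were counted on 4× images. Relative viability is treated-well nuclei count divided by vehicle-well nuclei count, and values are medians of duplicate plates.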

Compound in the test “Apatinib + OSI-027”: N#CC1(c2ccc(NC(=O)c3cccnc3NCc3ccncc3)cc2)CCCC1 [Apatinib] + COc1cccc2cc(-c3nc([C@H]4CC[C@H](C(=O)O)CC4)n4ncnc(N)c34)[nH]c12 [OSI-027] (partner 0.5 µM)
The method, boiled down:
as §1

Compound in the test “Apatinib + Crizotinib”: N#CC1(c2ccc(NC(=O)c3cccnc3NCc3ccncc3)cc2)CCCC1 [Apatinib] + C[C@@H](Oc1cc(-c2cnn(C3CCNCC3)c2)cnc1N)c1c(Cl)ccc(F)c1Cl [Crizotinib] (partner 1 µM)
The method, boiled down:
as §1

Compound in the test “Apatinib + Trametinib”: N#CC1(c2ccc(NC(=O)c3cccnc3NCc3ccncc3)cc2)CCCC1 [Apatinib] + CC(=O)Nc1cccc(-n2c(=O)n(C3CC3)c(=O)c3c(Nc4ccc(I)cc4F)n(C)c(=O)c(C)c32)c1 [Trametinib] (partner 0.02 µM)
The method, boiled down: as §1

For NCI-H2347, the relative viability stood at 0.585 with Metformin + Olaparib (first compound 10 µM); 0.506 with Metformin + Olaparib (first compound 31.62 µM); 0.376 with Metformin + Olaparib (first compound 100 µM); 0.465 with Metformin + Olaparib (first compound 316.23 µM); 0.512 in the test with Metformin + Olaparib (first compound 1000 µM); 0.478 in the test with Apatinib + OSI-027 (first compound 0.08 µM). For the same cell line, the relative viability with Apatinib + OSI-027 (first compound 0.253 µM) came out at 0.354; with Apatinib + OSI-027 (first compound 0.8 µM), 0.48; in the test with Apatinib + OSI-027 (first compound 2.53 µM), 0.361; with Apatinib + OSI-027 (first compound 8 µM), 0.282; with Apatinib + Crizotinib (first compound 0.08 µM), 0.795; with Apatinib + Crizotinib (first compound 0.253 µM), 0.751. Besides, the relative viability worked out at 0.772 with Apatinib + Crizotinib (first compound 0.8 µM); 0.578 with Apatinib + Crizotinib (first compound 2.53 µM); 0.645 in the test with Apatinib + Crizotinib (first compound 8 µM); 0.294 with Apatinib + Trametinib (first compound 0.08 µM); 0.228 in the test with Apatinib + Trametinib (first compound 0.253 µM); 0.249 in the test with Apatinib + Trametinib (first compound 0.8 µM). The relative viability stood at 0.291 with Apatinib + Trametinib (first compound 2.53 µM) and 0.268 in the test with Apatinib + Trametinib (first compound 8 µM).
As for PC-14, the relative viability is 0.233 in the test with Metformin + Olaparib (first compound 10 µM); 0.247 with Metformin + Olaparib (first compound 31.62 µM); 0.259 in the test with Metformin + Olaparib (first compound 100 µM); 0.225 in the test with Metformin + Olaparib (first compound 316.23 µM); 0.222 in the test with Metformin + Olaparib (first compound 1000 µM); 0.805 with Apatinib + OSI-027 (first compound 0.08 µM). For the same cell line, the relative viability in the test with Apatinib + OSI-027 (first compound 0.253 µM) stood at 0.956; with Apatinib + OSI-027 (first compound 0.8 µM) it was 0.596; with Apatinib + OSI-027 (first compound 2.53 µM) it was 0.748; with Apatinib + OSI-027 (first compound 8 µM), 0.602; with Apatinib + Crizotinib (first compound 0.08 µM), 0.925; in the test with Apatinib + Crizotinib (first compound 0.253 µM) it was 0.99. The relative viability was found to be 0.841 in the test with Apatinib + Crizotinib (first compound 0.8 µM); 0.863 with Apatinib + Crizotinib (first compound 2.53 µM); 0.915 with Apatinib + Crizotinib (first compound 8 µM); 0.754 in the test with Apatinib + Trametinib (first compound 0.08 µM); 0.897 in the test with Apatinib + Trametinib (first compound 0.253 µM); 0.563 with Apatinib + Trametinib (first compound 0.8 µM). Besides, the relative viability was determined as 0.636 in the test with Apatinib + Trametinib (first compound 2.53 µM) and 0.388 in the test with Apatinib + Trametinib (first compound 8 µM).
For IA-LM, the relative viability with Metformin + Olaparib (first compound 10 µM) came out at 0.864; in the test with Metformin + Olaparib (first compound 31.62 µM), 0.94; with Metformin + Olaparib (first compound 100 µM) it was 0.85; with Metformin + Olaparib (first compound 316.23 µM), 0.658; in the test with Metformin + Olaparib (first compound 1000 µM) it was 0.917; with Apatinib + Crizotinib (first compound 0.08 µM) it was 0.857. Besides, the relative viability with Apatinib + Crizotinib (first compound 0.253 µM) amounted to 0.615; in the test with Apatinib + Crizotinib (first compound 0.8 µM) it was 0.697; with Apatinib + Crizotinib (first compound 2.53 µM), 0.694; with Apatinib + Crizotinib (first compound 8 µM), 0.192.
As to NCI-H727, the relative viability in the test with Metformin + Olaparib (first compound 10 µM) was 0.641; with Metformin + Olaparib (first compound 31.62 µM) it was 0.599; in the test with Metformin + Olaparib (first compound 100 µM), 0.582; in the test with Metformin + Olaparib (first compound 1000 µM), 0.577; with Apatinib + OSI-027 (first compound 0.08 µM), 0.55; in the test with Apatinib + OSI-027 (first compound 0.253 µM) it was 0.565. For the same cell line, the relative viability with Apatinib + OSI-027 (first compound 0.8 µM) was 0.533; in the test with Apatinib + OSI-027 (first compound 2.53 µM), 0.642; with Apatinib + OSI-027 (first compound 8 µM), 0.466; in the test with Apatinib + Crizotinib (first compound 0.08 µM), 0.756; in the test with Apatinib + Crizotinib (first compound 0.253 µM), 0.693; with Apatinib + Crizotinib (first compound 0.8 µM), 0.719. Moreover, the relative viability with Apatinib + Crizotinib (first compound 2.53 µM) came to 0.679; in the test with Apatinib + Crizotinib (first compound 8 µM), 0.583; in the test with Apatinib + Trametinib (first compound 0.08 µM), 0.386; with Apatinib + Trametinib (first compound 0.8 µM), 0.386; with Apatinib + Trametinib (first compound 2.53 µM), 0.416; in the test with Apatinib + Trametinib (first compound 8 µM), 0.342.
With NCI-H1975, the relative viability with Metformin + Olaparib (first compound 10 µM) is 0.653; with Metformin + Olaparib (first compound 31.62 µM), 0.931; with Metformin + Olaparib (first compound 100 µM), 0.874; with Metformin + Olaparib (first compound 316.23 µM) it was 0.849; with Metformin + Olaparib (first compound 1000 µM) it was 0.955; with Apatinib + OSI-027 (first compound 0.08 µM), 0.718. In addition, the relative viability with Apatinib + OSI-027 (first compound 0.253 µM) is 0.901; with Apatinib + OSI-027 (first compound 0.8 µM), 0.55; in the test with Apatinib + OSI-027 (first compound 2.53 µM), 0.418; with Apatinib + OSI-027 (first compound 8 µM) it was 0.42; in the test with Apatinib + Crizotinib (first compound 0.08 µM), 1; with Apatinib + Crizotinib (first compound 0.253 µM), 0.967. The relative viability with Apatinib + Crizotinib (first compound 0.8 µM) was determined as 0.78; in the test with Apatinib + Crizotinib (first compound 2.53 µM) it was 0.814; with Apatinib + Crizotinib (first compound 8 µM), 0.78; with Apatinib + Trametinib (first compound 0.08 µM), 0.352; with Apatinib + Trametinib (first compound 0.253 µM), 0.3; in the test with Apatinib + Trametinib (first compound 0.8 µM), 0.417. The relative viability with Apatinib + Trametinib (first compound 2.53 µM) turned out to be 0.424; in the test with Apatinib + Trametinib (first compound 8 µM) it was 0.36.
For the cell line NCI-H2085, the relative viability worked out at 0.621 in the test with Metformin + Olaparib (first compound 10 µM); 0.633 in the test with Metformin + Olaparib (first compound 31.62 µM); 0.596 with Metformin + Olaparib (first compound 100 µM); 0.591 with Metformin + Olaparib (first compound 316.23 µM); 0.654 with Metformin + Olaparib (first compound 1000 µM); 0.858 with Apatinib + OSI-027 (first compound 0.08 µM). In addition, the relative viability with Apatinib + OSI-027 (first compound 0.253 µM) stood at 0.706; in the test with Apatinib + OSI-027 (first compound 0.8 µM), 0.767; with Apatinib + OSI-027 (first compound 2.53 µM), 0.612; with Apatinib + OSI-027 (first compound 8 µM), 0.549; with Apatinib + Crizotinib (first compound 0.08 µM), 0.89; with Apatinib + Crizotinib (first compound 0.253 µM), 0.794. For the same cell line, the relative viability with Apatinib + Crizotinib (first compound 0.8 µM) turned out to be 0.797; in the test with Apatinib + Crizotinib (first compound 2.53 µM) it was 0.777; in the test with Apatinib + Crizotinib (first compound 8 µM), 0.623; with Apatinib + Trametinib (first compound 0.08 µM) it was 0.608; with Apatinib + Trametinib (first compound 0.253 µM), 0.53; with Apatinib + Trametinib (first compound 0.8 µM), 0.39. Also, the relative viability with Apatinib + Trametinib (first compound 2.53 µM) was 0.576; with Apatinib + Trametinib (first compound 8 µM), 0.426.
Turning to Calu-6, the relative viability with Metformin + Olaparib (first compound 10 µM) came to 0.459; in the test with Metformin + Olaparib (first compound 31.62 µM) it was 0.416; with Metformin + Olaparib (first compound 100 µM), 0.421; with Metformin + Olaparib (first compound 316.23 µM), 0.48; with Metformin + Olaparib (first compound 1000 µM) it was 0.467; in the test with Apatinib + Crizotinib (first compound 0.08 µM), 0.789. The relative viability with Apatinib + Crizotinib (first compound 0.253 µM) worked out at 0.855; in the test with Apatinib + Crizotinib (first compound 0.8 µM), 0.726; in the test with Apatinib + Crizotinib (first compound 2.53 µM), 0.599; with Apatinib + Crizotinib (first compound 8 µM), 0.594.
In the case of LC-2-ad, the relative viability in the test with Metformin + Olaparib (first compound 31.62 µM) stood at 0.537; with Metformin + Olaparib (first compound 100 µM) it was 0.562; with Metformin + Olaparib (first compound 316.23 µM) it was 0.505; with Metformin + Olaparib (first compound 1000 µM), 0.587; with Apatinib + OSI-027 (first compound 0.08 µM) it was 0.752; with Apatinib + OSI-027 (first compound 0.253 µM), 0.761. The relative viability with Apatinib + OSI-027 (first compound 0.8 µM) is 0.828; with Apatinib + OSI-027 (first compound 2.53 µM), 0.813; with Apatinib + OSI-027 (first compound 8 µM), 0.68; in the test with Apatinib + Crizotinib (first compound 0.08 µM) it was 0.477; in the test with Apatinib + Crizotinib (first compound 0.253 µM) it was 0.496; in the test with Apatinib + Crizotinib (first compound 0.8 µM), 0.463. Moreover, the relative viability with Apatinib + Crizotinib (first compound 2.53 µM) is 0.473; with Apatinib + Crizotinib (first compound 8 µM) it was 0.482; with Apatinib + Trametinib (first compound 0.08 µM) it was 0.94; in the test with Apatinib + Trametinib (first compound 0.253 µM), 0.926; with Apatinib + Trametinib (first compound 0.8 µM), 0.907; with Apatinib + Trametinib (first compound 2.53 µM) it was 0.678. Besides, the relative viability in the test with Apatinib + Trametinib (first compound 8 µM) is 0.659.
